Data from the CheMixHub drug solubility set.

Assay: xn = mol fraction of the nth substance listed, in the solute-free solvent

Nc1cc(-c2ccncc2)c[nH]c1=O + CN(C)C=O + O
solubility (g/100 g solution)
Settings	278.15 K	283.15 K	288.15 K	293.15 K	298.15 K	303.15 K	308.15 K	313.15 K	318.15 K	323.15 K
x2 = 0.02666	0.00203	0.00236	0.0028	0.00324	0.00375	0.00428	0.00488	0.00552	0.00624	0.00705
x2 = 0.05806	0.00422	0.00489	0.00574	0.00661	0.00759	0.00861	0.00975	0.011	0.0123	0.0139
x2 = 0.09556	0.00683	0.00794	0.00916	0.0106	0.0122	0.014	0.0156	0.0177	0.0198	0.0224
x2 = 0.1412	0.00979	0.0113	0.0131	0.015	0.0171	0.0195	0.0221	0.0248	0.0277	0.0316
x2 = 0.1978	0.0124	0.0143	0.0167	0.0193	0.022	0.0249	0.0283	0.0322	0.036	0.0407
x2 = 0.27	0.0152	0.0177	0.0208	0.0238	0.0272	0.0308	0.0348	0.0395	0.0442	0.0497
x2 = 0.3652	0.0161	0.0195	0.0231	0.0268	0.0307	0.035	0.0397	0.0451	0.0506	0.0572
x2 = 0.4965	0.0192	0.0227	0.0267	0.0306	0.035	0.0398	0.0452	0.0516	0.0579	0.0654
x2 = 0.6893	0.0186	0.0221	0.0258	0.0305	0.0349	0.0402	0.0458	0.0523	0.0593	0.0673

CC(C)C(=O)Nc1ccc([N+](=O)[O-])c(C(F)(F)F)c1 + CCO + O
solubility (g/100 g solution)
Settings	278.15 K	283.15 K	288.15 K	293.15 K	298.15 K	303.15 K	308.15 K	313.15 K	318.15 K	323.15 K
x2 = 0.04165	0.00282	0.00366	0.00476	0.00623	0.00797	0.0102	0.0129	0.0162	0.0203	0.0251
x2 = 0.08908	0.0183	0.0236	0.0305	0.0388	0.0499	0.0632	0.0793	0.0976	0.122	0.148
x2 = 0.1436	0.0774	0.0967	0.124	0.158	0.199	0.246	0.305	0.377	0.462	0.568
x2 = 0.2068	0.289	0.358	0.447	0.563	0.694	0.851	1.04	1.26	1.54	1.86
x2 = 0.2812	0.894	1.09	1.34	1.62	1.93	2.32	2.77	3.31	3.89	4.58
x2 = 0.3698	2.17	2.59	3.2	3.88	4.59	5.48	6.38	7.52	8.74	10.2
x2 = 0.4772	4.83	5.78	6.84	8.03	9.49	11	12.8	14.7	16.8	19.1
x2 = 0.6101	8.9	10.5	12.3	14.3	16.5	19	21.5	24.4	27.2	30.6
x2 = 0.7788	13.7	15.9	18.4	21.1	24.4	27.7	30.7	34.4	38.1	41.7
